These results are taken from PubChem BioAssay (NCI).

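Five compound concentrations were applied to cells in 96-well plates for 48 hours; endpoints were derived by simple linear interpolation of the resulting dose-response curve. GI50 marks 50% less growth. TGI marks complete inhibition of growth.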

Some test systems named below: UO-31 renal; CCRF-CEM leukemia; OVCAR-8 ovarian; SK-MEL-2 melanoma; SF-539 CNS; SF-295 CNS; UACC-257 melanoma; COLO 205 colon; MCF7 breast; MDA-MB-435.
Assay in all cases: NCI tumour cell line growth inhibition, 48 h

For `Nc1ccccc1Nc1ccccc1C(=O)[O-].Nc1ccccc1Nc1ccccc1C(=O)[O-].[Cu+2]`, the TGI in the assay with UO-31 renal, in the assay on CCRF-CEM leukemia, in the assay with OVCAR-8 ovarian, in the assay with SK-MEL-2 melanoma, in the assay on SF-539 CNS and in the assay with SF-295 CNS was greater than 100 µM each time. For the same compound, the TGI in the assay on UACC-257 melanoma and with COLO 205 colon was greater than 100 µM each time.

For the compound `CSC1=Nc2ccccc2N(C)c2c1c(-c1ccccc1)nn2C`, the TGI is 53.1 µM in the assay on CCRF-CEM leukemia; greater than 100 µM in the assay with OVCAR-8 ovarian; 82.7 µM with SK-MEL-2 melanoma; greater than 100 µM with SF-539 CNS; 33.6 µM in the assay with SF-295 CNS; greater than 100 µM with UACC-257 melanoma. Further, the TGI in the assay with COLO 205 colon, in the assay on MCF7 breast and in the assay with MDA-MB-435 was greater than 100 µM in each case.

With `O=C1CC(=O)N(c2ccccc2)N1/C(=C/c1ccccc1)c1ccccc1`, the TGI in the assay with UO-31 renal is 29.2 µM; in the assay on CCRF-CEM leukemia it was 3.57 µM; with OVCAR-8 ovarian, 45.3 µM; in the assay with SK-MEL-2 melanoma, 69 µM; in the assay with SF-295 CNS, 35.6 µM; with UACC-257 melanoma it was 59.2 µM. The TGI with COLO 205 colon turned out to be 36.6 µM; with MCF7 breast it was 57.3 µM; in the assay with MDA-MB-435, 36.5 µM.

In the case of `C=CC(=O)Nc1cccc(-c2nc(SC)nc(Nc3ccccc3OC)c2C#N)c1`, the GI50 in the assay with UO-31 renal was 1.42 µM; in the assay with CCRF-CEM leukemia it was 3.07 µM; in the assay with OVCAR-8 ovarian, 2.07 µM; with SK-MEL-2 melanoma, 2.56 µM; in the assay with SF-539 CNS it was 1.93 µM; in the assay on SF-295 CNS, 1.95 µM. Besides, the GI50 in the assay with UACC-257 melanoma is 2.53 µM; in the assay on COLO 205 colon, 1.95 µM; in the assay on MDA-MB-435, 1.93 µM. The TGI in the assay with UO-31 renal was 3.18 µM; in the assay with CCRF-CEM leukemia, greater than 100 µM; in the assay with OVCAR-8 ovarian, 5.42 µM; with SK-MEL-2 melanoma it was 8.58 µM; with SF-539 CNS, 4.53 µM; in the assay with SF-295 CNS, 4.46 µM. In addition, the values for the TGI in the assay with UACC-257 melanoma, with COLO 205 colon and in the assay with MDA-MB-435 were 8.78 µM, 5.33 µM and 4.48 µM, respectively.

As for `CC(C)CC(N)C(=O)OCN1C(=O)C2C3C=CC(C2C1=O)C1C2C(=O)N(COC(=O)C(N)CC(C)C)C(=O)C2C31` (configuration not stated), the TGI in the assay with UO-31 renal, in the assay with CCRF-CEM leukemia, in the assay on OVCAR-8 ovarian, in the assay on SK-MEL-2 melanoma, with SF-539 CNS and with SF-295 CNS was greater than 100 µM each time. Moreover, the TGI in the assay on UACC-257 melanoma and in the assay on COLO 205 colon was greater than 100 µM throughout.

With `CCn1cc(C(c2ccc(Cl)cc2)n2ccnc2)c2cc(Br)ccc21` (configuration not stated), the TGI was found to be 20.1 µM in the assay with UO-31 renal; 31.6 µM in the assay with OVCAR-8 ovarian; 38.8 µM in the assay on SK-MEL-2 melanoma; 41.3 µM in the assay on SF-539 CNS; 23.8 µM with SF-295 CNS; 31.4 µM with UACC-257 melanoma. For the same compound, the results for the TGI in the assay on COLO 205 colon, with MCF7 breast and in the assay on MDA-MB-435 were 35.1 µM, 29.8 µM and 27 µM, respectively.

As to `Cc1ccc2c(c1)nc(N)n[n+]2[O-]`, the TGI in the assay on UO-31 renal, with CCRF-CEM leukemia, in the assay with OVCAR-8 ovarian, in the assay with SK-MEL-2 melanoma, in the assay on SF-539 CNS and with SF-295 CNS was greater than 100 µM each time. Moreover, the TGI with UACC-257 melanoma, in the assay on COLO 205 colon, in the assay on MCF7 breast and in the assay on MDA-MB-435 was greater than 100 µM in each case.

Take `OCC1CCCC(n2cnc3c(=S)nc[nH]c32)O1` (configuration not stated): the TGI in the assay with UO-31 renal, in the assay with OVCAR-8 ovarian, with SK-MEL-2 melanoma, in the assay on SF-295 CNS, in the assay on UACC-257 melanoma and in the assay with COLO 205 colon was greater than 100 µM throughout. Moreover, the TGI with MCF7 breast and with MDA-MB-435 was greater than 100 µM in each case.

On to `Cc1[nH]c(/C=C2\C(=O)Nc3ccc(S(=O)(=O)Cc4c(Cl)cccc4Cl)cc32)c(C)c1C(=O)N1CCC[C@@H]1CN1CCCC1`, for which the GI50 in the assay with UO-31 renal was 1.41 µM; in the assay with OVCAR-8 ovarian, 1.88 µM; with SK-MEL-2 melanoma, 12.5 µM; in the assay on SF-539 CNS it was 1.51 µM; in the assay on SF-295 CNS, 1.19 µM; in the assay on COLO 205 colon, 9.15 µM. Besides, the GI50 in the assay with MCF7 breast is 1.69 µM; in the assay with MDA-MB-435 it was 0.865 µM. Besides, the TGI in the assay with UO-31 renal worked out at 3.07 µM; in the assay with OVCAR-8 ovarian, 4.37 µM; with SK-MEL-2 melanoma, 53.1 µM; in the assay with SF-539 CNS, 2.89 µM; with SF-295 CNS, 2.57 µM; in the assay on COLO 205 colon, 22.6 µM. For the same compound, the TGI in the assay on MCF7 breast was found to be 3.64 µM; in the assay with MDA-MB-435 it was 2.2 µM.

Take `COC1OC(=O)[C@H]2O[N+]([O-])=C(C)[C@@H]12` (some centres not stated): the TGI with UO-31 renal, in the assay with CCRF-CEM leukemia, in the assay with OVCAR-8 ovarian, in the assay on SK-MEL-2 melanoma, in the assay on SF-539 CNS and in the assay on SF-295 CNS was greater than 100 µM in each case. The TGI in the assay on UACC-257 melanoma, with COLO 205 colon and in the assay with MCF7 breast was greater than 100 µM throughout.

For the compound `O=C(O)c1ccc(NC(c2ccccc2)c2ccc3cccnc3c2O)cc1` (configuration not stated), the TGI was 34.6 µM in the assay on UO-31 renal; 6.05 µM with CCRF-CEM leukemia; greater than 41.5 µM in the assay with OVCAR-8 ovarian; greater than 100 µM in the assay with SK-MEL-2 melanoma; 25.9 µM in the assay on SF-539 CNS; greater than 100 µM in the assay with SF-295 CNS. Further, the TGI is 46.2 µM with UACC-257 melanoma, greater than 86.9 µM with COLO 205 colon, greater than 80.7 µM in the assay on MCF7 breast and greater than 100 µM with MDA-MB-435.

`N#Cc1c(NC(=S)NC(=O)c2ccccc2)nc2c(c1-c1ccccc1)CCC2`: the TGI in the assay with UO-31 renal, in the assay on CCRF-CEM leukemia, in the assay on OVCAR-8 ovarian, with SF-539 CNS, in the assay with SF-295 CNS and in the assay on UACC-257 melanoma was greater than 100 µM throughout. Further, the TGI in the assay with COLO 205 colon and in the assay with MDA-MB-435 was greater than 100 µM each time.

On to `COc1cc2oc(-c3ccc(O)cc3)c(OC3OC(C)C(O)C(O)C3O)c(=O)c2c(O)c1OC` (configuration not stated), for which the TGI in the assay with CCRF-CEM leukemia, in the assay on OVCAR-8 ovarian, in the assay with SK-MEL-2 melanoma, in the assay with SF-539 CNS, with SF-295 CNS and with UACC-257 melanoma was greater than 100 µM each time. Also, the TGI with COLO 205 colon, in the assay with MCF7 breast and in the assay with MDA-MB-435 was greater than 100 µM in each case.

Take `O=[Se]([O-])c1ccccc1.O=[Se]([O-])c1ccccc1.[OH3+].[OH3+].[Pt+2]`: the GI50 in the assay on UO-31 renal was 5.78 µM; in the assay on CCRF-CEM leukemia, 3.15 µM; in the assay on OVCAR-8 ovarian, 3.03 µM; in the assay on SK-MEL-2 melanoma, 12.7 µM; with SF-539 CNS, 10.6 µM; in the assay with SF-295 CNS, 3.42 µM. Further, the GI50 in the assay with UACC-257 melanoma was 2.96 µM; in the assay on COLO 205 colon it was 6.78 µM; in the assay on MCF7 breast, 6.42 µM. In addition, the TGI in the assay with UO-31 renal was 46.2 µM; in the assay on CCRF-CEM leukemia it was greater than 35.9 µM; with OVCAR-8 ovarian, 20.2 µM; in the assay on SK-MEL-2 melanoma, 35.5 µM; in the assay with SF-539 CNS, 44.2 µM; with SF-295 CNS, 16.9 µM. The values for the TGI in the assay on UACC-257 melanoma, in the assay on COLO 205 colon and in the assay on MCF7 breast were 11.8 µM, 18.4 µM and 37.2 µM, respectively.

Turning to `O=C(Nc1ccc(I)cc1C(=O)NCCO)c1cccs1`, the TGI with UO-31 renal, with CCRF-CEM leukemia, in the assay on OVCAR-8 ovarian, in the assay with SK-MEL-2 melanoma, with SF-539 CNS and in the assay with SF-295 CNS was greater than 100 µM throughout. In addition, the TGI with UACC-257 melanoma, in the assay on COLO 205 colon, with MCF7 breast and in the assay on MDA-MB-435 was greater than 100 µM throughout.

On to `Nc1n[nH]c(=O)[nH]1`, for which the TGI with UO-31 renal, in the assay on CCRF-CEM leukemia, in the assay on OVCAR-8 ovarian, with SK-MEL-2 melanoma, with SF-539 CNS and in the assay on SF-295 CNS was greater than 100 µM each time. The TGI in the assay with UACC-257 melanoma, in the assay with COLO 205 colon and in the assay with MCF7 breast was greater than 100 µM throughout.

On to `CCC(=O)C(c1ccccc1)c1ccccn1` (configuration not stated), for which the TGI with UO-31 renal, with CCRF-CEM leukemia, in the assay on OVCAR-8 ovarian, in the assay on SK-MEL-2 melanoma, with SF-295 CNS and in the assay on UACC-257 melanoma was greater than 100 µM in each case. In addition, the TGI in the assay with COLO 205 colon, in the assay on MCF7 breast and with MDA-MB-435 was greater than 100 µM each time.
